Where two headings read alike, the source gives them in different places.

Common to all, as to format: cell-based
The target of one assay is ERα (Homo sapiens (Human), UniProt P03372). In words: Degradation effect on ERα in MCF-7 cells (ERα Duoset ELISA). The settings on record: read-out: IC50 value of the degradation effect on ERα. The method, then:
In order to determine the degradation effect on ER induced by the compounds of the present invention, the following method was used to determine the degradation effect of the compounds of the present invention on ER.
MCF-7 cell line (TChu 74, Cell Bank of Chinese Academy of Sciences typical culture preservation Committee)
ERα Duoset Kit (#DYC5715E, R&D System)
MCF-7 cells were incubated in DMEM/F-12 medium containing 10% FBS.
On the first day of the experiment, MCF-7 cells were resuspended in DMEM/F-12 medium containing 10% FBS treated by activated carbon, then inoculated into a 48-well plate with a density of 50,000 cells/well and incubated for 22-24 hours.
On the second day of the experiment, the test compound was diluted with medium and added to a 48-well plate. The ERα-capture antibody was diluted to 1 μg/ml with PBS, and added to a 96-well plate at 100 μl/well. The plate was sealed and coated overnight at room temperature.
On the third day of the experiment, the coated 96-well plate was washed twice with PBS, added with a sealing solution (1% BSA in PBS) at 110 μl/well and sealed for 1 hour at room temperature. The 48-well plate was washed once with PBS, and the residual liquid was removed. Then, 60 μl of lysis (6 M urea, 1 mM EDTA, 0.5% Triton X-100, 1 mM PMSF, Protease Inhibitor cocktail) was added to each well. After lysis on ice for 15 minutes, the diluent (1 mM EDTA, 0.5% TritonX-100 dissolved in PBS) was added. The cell-diluted lysate was transferred to a 96-well plate at 100 μl/well, then the plate was incubated at room temperature for 2 hours. The diluted primary antibody was added after the plate was washed 4 times with a washing liquid (PBST). After incubation for 1 hour, the 96-well plate was washed 4 times, and the second antibody was added, then the plate was incubated for 30 minutes. After the plate was washed with a washing liquid, TMB chromogenic solution was added and incubated for 15 minutes. The reaction was stopped by the addition of 1 M H2SO4, then the light absorption at 450 nm was read.
(In an ELISA, binding on a coated surface is turned into a signal by an enzyme label.)

A further assay concerns MCF7 cells. In words: Inhibition of the proliferation of MCF7 cells (Cell Titer-Glo). The settings on record: Homo sapiens, MCF-7 cells, 72 hours, read-out: IC50 value of inhibition effect on the proliferation of MCF7 cells. The method, then:
The object of this experiment was to determine the inhibition effect of the compounds on the proliferation activity of MCF7 cells, and the in vitro activity of the compounds was evaluated according to the IC50 value.
After incubation for 24 hours, the medium was removed, then 90 μl of the medium containing 2% FBS and 10 μl of the drug were added to each well, 10 μl of DMSO were added to the control group, and the blank group contained only 100 μl medium containing 2% FBS. The plate was gently shaken and incubated in a incubator at 37° C., 5% CO2. After 72 hours, 50 μl of mixed Cell Titer-Glo (Promega, Cat. No. G7571) were added to each well. The plate was shaken until the ingredients were well mixed, and placed at room temperature for 10 minutes, then the chemiluminescence signal value was determined.
The values of the chemiluminescence signals vs the logarithmic concentrations of the compounds were plotted using Graghpad Prism to obtain IC50 values.

The target in the next assay is estrogen receptor (ER) (Homo sapiens (Human), UniProt P03372). In words: Inhibition of the binding of estrogen (E) to estrogen receptor (ER), MCF-7/ERE-luciferase reporter cells. The settings on record: MCF-7/ERE-luciferase cells, 0.1 nM estradiol, 24 hours; read-out: IC50 value of inhibition effect on the binding of E to ER. The method, then: The inhibition effect of the compounds on the binding of E to ER in vitro was tested by the following method.
The object of this experiment was to determine the inhibition effect of the compounds on the binding of E to ER, and the in vitro activity of the compounds was evaluated according to the IC50 value.
MCF-7/ERE-luciferase cells were inoculated into the MEM medium (hyclone, SH30024.01B) containing 10% charcoal stripped FBS (Moregate, FBSF), 1% sodium pyruvate (Sigma, Cat. No. S8636), 1% nonessential amino acids (Sigma, Cat. No. M7145) and 500 μg/ml G418 in a 96-well plate with a density of 30,000 cells/well, and the cells were incubated under the conditions of 37° C. and 5% CO2. […] After incubation for 24 hours, the medium was removed, then 0.1 nM estradiol (Sigma, Cat. No. E2758) and 10 μl of the drug diluted with the medium were added to each well, and the control group was added with DMSO. The plate was gently shaken and incubated in a incubator at 37° C., 5% CO2. After 24 hours, the cell culture medium was discarded.
The inhibition effect of the compounds of the present invention on the binding of E to ER was tested by the experiment described above.
For orientation: Reporter assays use an easily measured gene product as a stand-in for the process of interest.

Sequence of estrogen receptor (ER) (P03372 whole entry): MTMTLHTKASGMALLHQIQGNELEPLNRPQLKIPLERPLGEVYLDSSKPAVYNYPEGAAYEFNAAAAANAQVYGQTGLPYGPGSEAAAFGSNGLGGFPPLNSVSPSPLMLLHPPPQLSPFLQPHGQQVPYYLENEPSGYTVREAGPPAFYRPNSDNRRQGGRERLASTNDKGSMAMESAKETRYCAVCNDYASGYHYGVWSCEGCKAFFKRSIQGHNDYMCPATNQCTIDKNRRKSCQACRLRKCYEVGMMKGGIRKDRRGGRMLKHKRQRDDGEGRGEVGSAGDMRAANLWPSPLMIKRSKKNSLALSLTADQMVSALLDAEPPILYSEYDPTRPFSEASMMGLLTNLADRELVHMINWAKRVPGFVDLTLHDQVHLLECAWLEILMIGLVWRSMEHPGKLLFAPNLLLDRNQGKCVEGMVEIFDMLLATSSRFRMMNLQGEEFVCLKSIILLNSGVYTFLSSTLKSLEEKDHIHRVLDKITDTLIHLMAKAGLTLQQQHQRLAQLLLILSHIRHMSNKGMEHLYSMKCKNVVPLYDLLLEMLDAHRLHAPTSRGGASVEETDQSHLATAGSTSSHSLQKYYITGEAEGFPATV
Sequence of ERα (P03372 whole entry): as above

As to `CC1Cc2cc3c(cc2C(c2c(F)cc(/C=C/C(=O)O)cc2F)N1CC(C)(C)F)OCO3` [Example 1, (E)-3-(3,5-difluoro-4-((5S,7R/5R,7S)-6-(2-fluoro-2-methylpropyl)-7-methyl-5,6,7,8-tetrahydro-[1,3]dioxolo[4,5-g]isoquinolin-5-yl)phenyl)acrylic acid], at ERα, the DC50 was determined as 0.11 nM. For the same compound, in the assay on MCF7 cells, the IC50 was found to be 0.12 nM.
Consider `CC1Cc2c(oc3ccccc23)C(c2c(F)cc(/C=C/C(=O)O)cc2F)N1CC(C)(C)F` [Example 4, (E)-3-(3,5-difluoro-4-((1R,3R/1S,3S)-2-(2-fluoro-2-methylpropyl)-3-methyl-1,2,3,4-tetrahydrobenzofuro[2,3-c]pyridin-1-yl)phenyl)acrylic acid], for which, on ERα (MCF-7 cells), the DC50 is 0.56 nM. Besides, the IC50 in the assay on MCF7 cells came out at 0.19 nM.
In the case of `CC1Cc2cc(N3Cc4ccncc4C3)ccc2C(c2c(F)cc(/C=C/C(=O)O)cc2F)N1CC(C)(C)F` [Example 42, (E)-3-(3,5-difluoro-4-((1S,3R/1R,3S)-2-(2-fluoro-2-methylpropyl)-3-methyl-6-(1H-pyrrolo[3,4-c]pyridin-2(3H)-yl)-1,2,3,4-tetrahydroisoquinolin-1-yl)phenyl)acrylic acid], the IC50 on estrogen receptor (ER) came out at 8.1 nM; in the assay on MCF7 cells, 5 nM.
As to `Cc1ccc(-c2ccc3c(c2)CC(C)N(CC(C)(C)F)C3c2c(F)cc(/C=C/C(=O)O)cc2F)s1` [Example 43, (E)-3-(3,5-difluoro-4-((1S,3R/1R,3S)-2-(2-fluoro-2-methylpropyl)-3-methyl-6-(5-methylthiophen-2-yl)-1,2,3,4-tetrahydroisoquinolin-1-yl)phenyl)acrylic acid], the IC50 at estrogen receptor (ER) worked out at 4.98 nM; in the assay with MCF7 cells, 2.66 nM.
On to `CC1Cc2cc(-c3cnn(C(C)C)c3)ccc2C(c2c(F)cc(/C=C/C(=O)O)cc2F)N1CC(C)(C)F` [Example 50, (E)-3-(3,5-difluoro-4-((1S,3R/1R,3S)-2-(2-fluoro-2-methylpropyl)-6-(1-isopropyl-1H-pyrazol-4-yl)-3-methyl-1,2,3,4-tetrahydroisoquinolin-1-yl)phenyl)acrylic acid], for which the IC50 was found to be 9.7 nM at estrogen receptor (ER) and 4.86 nM in the assay with MCF7 cells.
Take `CC1Cc2cc(-c3ncco3)ccc2C(c2c(F)cc(/C=C/C(=O)O)cc2F)N1CC(C)(C)F` [Example 54, (E)-3-(3,5-difluoro-4-((1S,3R/1R,3S)-2-(2-fluoro-2-methylpropyl)-3-methyl-6-(oxazol-2-yl)-1,2,3,4-tetrahydroisoquinolin-1-yl)phenyl)acrylic acid]: the IC50 came to 9.41 nM on estrogen receptor (ER) and 3.67 nM in the assay on MCF7 cells.
Turning to `CC1Cc2cc(-c3cnc4ccccc4c3)ccc2C(c2c(F)cc(/C=C/C(=O)O)cc2F)N1CC(C)(C)F` [Example 62, (E)-3-(3,5-difluoro-4-((1S,3R/1R,3S)-2-(2-fluoro-2-methylpropyl)-3-methyl-6-(quinolin-3-yl)-1,2,3,4-tetrahydroisoquinolin-1-yl)phenyl)acrylic acid], the results for the IC50 on estrogen receptor (ER) and in the assay on MCF7 cells were 13.6 nM and 16.1 nM, respectively.
Take `CC1Cc2cc(-c3ccc4ncccc4c3)ccc2C(c2c(F)cc(/C=C/C(=O)O)cc2F)N1CC(C)(C)F` [Example 63, (E)-3-(3,5-difluoro-4-((1S,3R/1R,3S)-2-(2-fluoro-2-methylpropyl)-3-methyl-6-(quinolin-6-yl)-1,2,3,4-tetrahydroisoquinolin-1-yl)phenyl)acrylic acid]: the IC50 on estrogen receptor (ER) was determined as 1.7 nM; in the assay on MCF7 cells it was 0.58 nM.
In the same order, the values of `Cc1nc2ccc(-c3ccc4c(c3)CC(C)N(CC(C)(C)F)C4c3c(F)cc(/C=C/C(=O)O)cc3F)cc2s1` [Example 66, (E)-3-(3,5-difluoro-4-((1S,3R/1R,3S)-2-(2-fluoro-2-methylpropyl)-3-methyl-6-(2-methylbenzo[d]thiazol-6-yl)-1,2,3,4-tetrahydroisoquinolin-1-yl)phenyl)acrylic acid] are 3.25 nM and 1.62 nM.
On the same counts, the results for `C[C@H]1Cc2c(oc3ccccc23)[C@H](c2c(F)cc(/C=C/C(=O)O)cc2F)N1CC(C)(C)F` [Example 69, (E)-3-(3,5-difluoro-4-((1S,3S)-2-(2-fluoro-2-methylpropyl)-3-methyl-1,2,3,4-tetrahydrobenzofuro[2,3-c]pyridin-1-yl)phenyl)acrylic acid] are 34 nM and 6.41 nM.
For the compound `CC1Cc2c(ccc3c2OCO3)C(c2c(F)cc(/C=C/C(=O)O)cc2F)N1CC(C)(C)F` [Example 82, (E)-3-(3,5-difluoro-4-((6S,8R/6R,8S)-7-(2-fluoro-2-methylpropyl)-8-methyl-6,7,8,9-tetrahydro-[1,3]dioxolo[4,5-f]isoquinolin-6-yl)phenyl)acrylic acid], the IC50 on estrogen receptor (ER) was determined as 13.6 nM; in the assay with MCF7 cells, 4.43 nM.
In the same order, the values of `CC1Cc2cc3c(cc2C(c2ccc(/C=C/C(=O)O)cc2)N1CC(C)(C)F)OCO3` (stereo not shown) [Example 83, (E)-3-(4-(6-(2-fluoro-2-methylpropyl)-7-methyl-5,6,7,8-tetrahydro-[1,3]dioxolo[4,5-g]isoquinolin-5-yl)phenyl)acrylic acid] are 20.5 nM and 17.5 nM.
In the same order, the values of `CC1Cc2c(oc3cc(Cl)ccc23)C(c2c(F)cc(/C=C/C(=O)O)cc2F)N1CC(C)(C)F` [Example 85, (E)-3-(4-((1R,3R/1S,3S)-7-chloro-2-(2-fluoro-2-methylpropyl)-3-methyl-1,2,3,4-tetrahydrobenzofuro[2,3-c]pyridin-1-yl)-3,5-difluorophenyl)acrylic acid] are 21.9 nM and 7.3 nM.
In the same order, the values of `C[C@@H]1Cc2cc(-c3ccc4cnccc4c3)ccc2[C@@H](c2c(F)cc(/C=C/C(=O)O)cc2F)N1CC(C)(C)F` [Example 98, (E)-3-(3,5-difluoro-4-((1S,3R)-2-(2-fluoro-2-methylpropyl)-3-methyl-1,2,3,4-tetrahydro-[6,6′-biisoquinolin]-1-yl)phenyl)acrylic acid] are 0.85 nM and 1.83 nM.
Consider `CC1Cc2c(ccc3[nH]ncc23)C(c2ccc(/C=C/C(=O)O)cc2)N1CC(C)(C)F` [Example 101, (E)-3-(4-((6S,8R/6R,8S)-7-(2-fluoro-2-methylpropyl)-8-methyl-6,7,8,9-tetrahydro-3H-pyrazolo[4,3-f]isoquinolin-6-yl)phenyl)acrylic acid], for which the results for the IC50 at estrogen receptor (ER) and in the assay on MCF7 cells were 3.14 nM and 2.07 nM, respectively.
`CC(C)CN1C(C)Cc2c(ccc3[nH]ncc23)C1c1ccc(/C=C/C(=O)O)cc1` [Example 102, (E)-3-(4-((6R,8R/6S,8S)-7-isobutyl-8-methyl-6,7,8,9-tetrahydro-3H-pyrazolo[4,3-f]isoquinolin-6-yl)phenyl)acrylic acid]: the IC50 on estrogen receptor (ER) amounted to 0.64 nM; with MCF7 cells it was 4.99 nM.
`CC1Cc2c(ccc3[nH]ncc23)C(c2c(F)cc(/C=C/C(=O)O)cc2F)N1C1CCCC1` [Example 103, (E)-3-(4-((6S,8R/6R,8S)-7-cyclopentyl-8-methyl-6,7,8,9-tetrahydro-3H-pyrazolo[4,3-f]isoquinolin-6-yl)-3,5-difluorophenyl)acrylic acid]: the IC50 was determined as 1.32 nM at estrogen receptor (ER) and 2.95 nM with MCF7 cells.
